Among the data in patent US8003785B2 (Takeda Pharmaceutical Company Limited, priority 2008, dated 2011) are IC50 values, retold here.

Each structure is given as a SMILES string.

For the experiment, the target named is T1, PLK1 (Homo sapiens, UniProt P53350).
T1 construct: Full-length, active GST-PLK1 is purified from Sf9 insect cells; made in house; host or cells: Sf9 insect cells
T1 sequence (P53350 whole entry): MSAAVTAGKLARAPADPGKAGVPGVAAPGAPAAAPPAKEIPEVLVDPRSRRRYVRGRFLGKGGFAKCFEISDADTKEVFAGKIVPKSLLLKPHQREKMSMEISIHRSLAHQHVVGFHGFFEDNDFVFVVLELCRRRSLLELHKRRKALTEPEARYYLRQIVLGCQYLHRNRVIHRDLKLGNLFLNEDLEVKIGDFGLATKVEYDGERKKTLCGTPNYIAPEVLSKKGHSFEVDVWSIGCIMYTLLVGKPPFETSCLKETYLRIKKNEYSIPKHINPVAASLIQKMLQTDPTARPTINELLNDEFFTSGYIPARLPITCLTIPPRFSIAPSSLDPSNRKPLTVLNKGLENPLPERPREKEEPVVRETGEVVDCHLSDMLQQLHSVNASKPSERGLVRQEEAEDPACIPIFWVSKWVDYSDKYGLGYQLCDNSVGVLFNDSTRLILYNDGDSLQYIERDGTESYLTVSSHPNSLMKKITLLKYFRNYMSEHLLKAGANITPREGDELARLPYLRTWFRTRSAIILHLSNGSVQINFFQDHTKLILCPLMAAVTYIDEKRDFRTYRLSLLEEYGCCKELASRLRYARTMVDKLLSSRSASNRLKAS
Nature of the experiment: Biochemical Characterization Assay: HTRF kinase assay, GST-PLK1 phosphorylation of GST-p53. Conditions: GST-PLK1, GST-p53 substrate. In a few lines:
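Full-length active GST-PLK1 (Sf9, 3 ug/mL) phosphorylated full-length GST-p53 (E. coli) in Kinase Assay Buffer for 35 min at 37 °C. Stopped with EDTA; phospho-p53 detected by HTRF with anti-phospho-p53, Eu-anti-rabbit and APC-anti-GST antibodies.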
Background: Time-resolved FRET reads energy transfer from a long-lived donor to a nearby acceptor.
The term IC50 denotes the concentration that inhibits the measured activity by half. The low end stands for higher potency, the high end for lower potency. In the case of `CCc1cc(C(=O)NCCCN(C)C)ccc1Nc1ncc2c(n1)N(C1CCCC1)CC(F)(F)C(=O)N2C` [Example I-199, 4-(9-cyclopentyl-7,7-difluoro-5-methyl-6-oxo-6,7,8,9-tetrahydro-5H-pyrimido[4,5-b][1,4]diazepin-2-ylamino)-N-(3-dimethylamino-propyl)-3-ethyl-benzamide], the IC50 fell in the range of 1 to 50 nM.

`CCc1cc(C(=O)NC)ccc1Nc1ncc2c(n1)N(C1CCCC1)CC(F)(F)C(=O)N2C` [Example I-200, 4-(9-cyclopentyl-7,7-difluoro-5-methyl-6-oxo-6,7,8,9-tetrahydro-5H-pyrimido[4,5-b][1,4]diazepin-2-ylamino)-3-ethyl-N-methyl-benzamide] yielded an IC50 of 1 to 50 nM.

`CCc1cc(C(=O)NC2CCN(C(=O)OC(C)(C)C)CC2)ccc1Nc1ncc2c(n1)N(C1CCCC1)CC(F)(F)C(=O)N2C` [Example I-201, 4-[4-(9-cyclopentyl-7,7-difluoro-5-methyl-6-oxo-6,7,8,9-tetrahydro-5H-pyrimido[4,5-b][1,4]diazepin-2-ylamino)-3-ethyl-benzoylamino]-piperidine-1-carboxylic acid tert-butyl ester]: the IC50 lay within 51 to 500 nM.

Molecule `CCc1cc(C(=O)NC2CCNCC2)ccc1Nc1ncc2c(n1)N(C1CCCC1)CC(F)(F)C(=O)N2C` [Example I-202, 4-(9-cyclopentyl-7,7-difluoro-5-methyl-6-oxo-6,7,8,9-tetrahydro-5H-pyrimido[4,5-b][1,4]diazepin-2-ylamino)-3-ethyl-N-piperidin-4-yl-benzamide] had an IC50 of 1 to 50 nM.

With `CCc1cc(C(N)=O)ccc1Nc1ncc2c(n1)N(C1CCCC1)CC(F)(F)C(=O)N2C` [Example I-203], the 50% inhibitory concentration (IC50) was in the range of 1 to 50 nM.

The molecule `CCN1CCC(NC(=O)c2ccc(Nc3ncc4c(n3)N(C3CCCC3)CC(F)(F)C(=O)N4C)c(C(F)(F)F)c2)CC1` [Example I-206, 4-(9-cyclopentyl-7,7-difluoro-5-methyl-6-oxo-6,7,8,9-tetrahydro-5H-pyrimido[4,5-b][1,4]diazepin-2-ylamino)-N-(1-ethyl-piperidin-4-yl)-3-trifluoromethyl-benzamide] had an IC50 of 1 to 50 nM.

Molecule `CN1C(=O)C(F)(F)CN(C2CCCC2)c2nc(Nc3ccc(C(=O)NC4CCOCC4)cc3C(F)(F)F)ncc21` [Example I-207, 4-(9-cyclopentyl-7,7-difluoro-5-methyl-6-oxo-6,7,8,9-tetrahydro-5H-pyrimido[4,5-b][1,4]diazepin-2-ylamino)-N-(tetrahydro-pyran-4-yl)-3-trifluoromethyl-benzamide] showed an IC50 of 51 to 500 nM.

Molecule `CN(C)CCNC(=O)c1ccc(Nc2ncc3c(n2)N(C2CCCC2)CC(F)(F)C(=O)N3C)c(C(F)(F)F)c1` [Example I-208, 4-(9-cyclopentyl-7,7-difluoro-5-methyl-6-oxo-6,7,8,9-tetrahydro-5H-pyrimido[4,5-b][1,4]diazepin-2-ylamino)-N-(2-dimethylamino-ethyl)-3-trifluoromethyl-benzamide] yielded an IC50 of 51 to 500 nM.

For the molecule `CN(C)CCCNC(=O)c1ccc(Nc2ncc3c(n2)N(C2CCCC2)CC(F)(F)C(=O)N3C)c(C(F)(F)F)c1` [Example I-209, 4-(9-cyclopentyl-7,7-difluoro-5-methyl-6-oxo-6,7,8,9-tetrahydro-5H-pyrimido[4,5-b][1,4]diazepin-2-ylamino)-N-(3-dimethylamino-propyl)-3-trifluoromethyl-benzamide], the IC50 was in the range of 1 to 50 nM.

`CNC(=O)c1ccc(Nc2ncc3c(n2)N(C2CCCC2)CC(F)(F)C(=O)N3C)c(C(F)(F)F)c1` [Example I-210, 4-(9-cyclopentyl-7,7-difluoro-5-methyl-6-oxo-6,7,8,9-tetrahydro-5H-pyrimido[4,5-b][1,4]diazepin-2-ylamino)-N-methyl-3-trifluoromethyl-benzamide] came in with a 50% inhibitory concentration (IC50) of 51 to 500 nM.

In turn, `CN1C(=O)C(F)(F)CN(C2CCCC2)c2nc(Nc3ccc(C(=O)NC4CCN(C(=O)OC(C)(C)C)CC4)cc3C(F)(F)F)ncc21` [Example I-211, 4-[4-(9-cyclopentyl-7,7-difluoro-5-methyl-6-oxo-6,7,8,9-tetrahydro-5H-pyrimido[4,5-b][1,4]diazepin-2-ylamino)-3-trifluoromethyl-benzoylamino]-piperidine-1-carboxylic acid tert-butyl ester] showed an IC50 of 51 to 500 nM.

The molecule `CN1C(=O)C(F)(F)CN(C2CCCC2)c2nc(Nc3ccc(C(=O)NC4CCNCC4)cc3C(F)(F)F)ncc21` [Example I-212, 4-(9-cyclopentyl-7,7-difluoro-5-methyl-6-oxo-6,7,8,9-tetrahydro-5H-pyrimido[4,5-b][1,4]diazepin-2-ylamino)-N-piperidin-4-yl-3-trifluoromethyl-benzamide] yielded an IC50 of 1 to 50 nM.

For the molecule `CN1C(=O)C(F)(F)CN(C2CCCC2)c2nc(Nc3ccc(C(N)=O)cc3C(F)(F)F)ncc21` [Example I-213, 4-(9-cyclopentyl-7,7-difluoro-5-methyl-6-oxo-6,7,8,9-tetrahydro-5H-pyrimido[4,5-b][1,4]diazepin-2-ylamino)-3-trifluoromethyl-benzamide], the IC50 is 51 to 500 nM.

`CCOc1cc(C(=O)NC2CCN(C)CC2)ccc1Nc1ncc2c(n1)N(C1CCCC1)CC(F)(F)C(=O)N2C` [Example I-215, 4-(9-cyclopentyl-7,7-difluoro-5-methyl-6-oxo-6,7,8,9-tetrahydro-5H-pyrimido[4,5-b][1,4]diazepin-2-ylamino)-3-ethoxy-N-(1-methyl-piperidin-4-yl)-benzamide] returned an IC50 of 1 to 50 nM.

`CCOc1cc(C(=O)NC2CCN(CC)CC2)ccc1Nc1ncc2c(n1)N(C1CCCC1)CC(F)(F)C(=O)N2C` [Example I-216, 4-(9-cyclopentyl-7,7-difluoro-5-methyl-6-oxo-6,7,8,9-tetrahydro-5H-pyrimido[4,5-b][1,4]diazepin-2-ylamino)-3-ethoxy-N-(1-ethyl-piperidin-4-yl)-benzamide]: the IC50 fell in the range of 1 to 50 nM.

Regarding `CCOc1cc(C(=O)NC2CCOCC2)ccc1Nc1ncc2c(n1)N(C1CCCC1)CC(F)(F)C(=O)N2C` [Example I-217, 4-(9-cyclopentyl-7,7-difluoro-5-methyl-6-oxo-6,7,8,9-tetrahydro-5H-pyrimido[4,5-b][1,4]diazepin-2-ylamino)-3-ethoxy-N-(tetrahydro-pyran-4-yl)-benzamide], the IC50 fell in the range of 1 to 50 nM.

As to `CCOc1cc(C(=O)NCCN(C)C)ccc1Nc1ncc2c(n1)N(C1CCCC1)CC(F)(F)C(=O)N2C` [Example I-218, 4-(9-cyclopentyl-7,7-difluoro-5-methyl-6-oxo-6,7,8,9-tetrahydro-5H-pyrimido[4,5-b][1,4]diazepin-2-ylamino)-N-(2-dimethylamino-ethyl)-3-ethoxy-benzamide], the concentration for half-maximal inhibition (IC50) was 1 to 50 nM.

For the molecule `CCOc1cc(C(=O)NCCCN(C)C)ccc1Nc1ncc2c(n1)N(C1CCCC1)CC(F)(F)C(=O)N2C` [Example I-219, 4-(9-cyclopentyl-7,7-difluoro-5-methyl-6-oxo-6,7,8,9-tetrahydro-5H-pyrimido[4,5-b][1,4]diazepin-2-ylamino)-N-(3-dimethylamino-propyl)-3-ethoxy-benzamide], the IC50 was 1 to 50 nM.

The molecule `CCOc1cc(C(=O)NC)ccc1Nc1ncc2c(n1)N(C1CCCC1)CC(F)(F)C(=O)N2C` [Example I-220, 4-(9-cyclopentyl-7,7-difluoro-5-methyl-6-oxo-6,7,8,9-tetrahydro-5H-pyrimido[4,5-b][1,4]diazepin-2-ylamino)-3-ethoxy-N-methyl-benzamide] came in with an IC50 of 1 to 50 nM.

As for `CCOc1cc(C(=O)NC2CCN(C(=O)OC(C)(C)C)CC2)ccc1Nc1ncc2c(n1)N(C1CCCC1)CC(F)(F)C(=O)N2C` [Example I-221, 4-[4-(9-cyclopentyl-7,7-difluoro-5-methyl-6-oxo-6,7,8,9-tetrahydro-5H-pyrimido[4,5-b][1,4]diazepin-2-ylamino)-3-ethoxy-benzoylamino]-piperidine-1-carboxylic acid tert-butyl ester], the IC50 was in the range of 51 to 500 nM.

Molecule `CCOc1cc(C(=O)NC2CCNCC2)ccc1Nc1ncc2c(n1)N(C1CCCC1)CC(F)(F)C(=O)N2C` [Example I-222, 4-(9-cyclopentyl-7,7-difluoro-5-methyl-6-oxo-6,7,8,9-tetrahydro-5H-pyrimido[4,5-b][1,4]diazepin-2-ylamino)-3-ethoxy-N-piperidin-4-yl-benzamide] returned an IC50 of 1 to 50 nM.

In turn, `CCOc1cc(C(N)=O)ccc1Nc1ncc2c(n1)N(C1CCCC1)CC(F)(F)C(=O)N2C` [Example I-223, 4-(9-cyclopentyl-7,7-difluoro-5-methyl-6-oxo-6,7,8,9-tetrahydro-5H-pyrimido[4,5-b][1,4]diazepin-2-ylamino)-3-ethoxy-benzamide] returned an IC50 of 1 to 50 nM.

Consider `CCN1CCC(NC(=O)c2ccc(Nc3ncc4c(n3)N(C3CCCC3)CC(F)(F)C(=O)N4C)c(F)c2)CC1` [Example I-224, 4-(9-cyclopentyl-7,7-difluoro-5-methyl-6-oxo-6,7,8,9-tetrahydro-5H-pyrimido[4,5-b][1,4]diazepin-2-ylamino)-N-(1-ethyl-piperidin-4-yl)-3-fluoro-benzamidemide], for which the IC50 lay within 1 to 50 nM.

On to `CN1C(=O)C(F)(F)CN(C2CCCC2)c2nc(Nc3ccc(C(=O)NC4CCOCC4)cc3F)ncc21` [Example I-225, 4-(9-cyclopentyl-7,7-difluoro-5-methyl-6-oxo-6,7,8,9-tetrahydro-5H-pyrimido[4,5-b][1,4]diazepin-2-ylamino)-3-fluoro-N-(tetrahydro-pyran-4-yl)-benzamide], for which the IC50 lay in the range of 1 to 50 nM.

Molecule `CN(C)CCNC(=O)c1ccc(Nc2ncc3c(n2)N(C2CCCC2)CC(F)(F)C(=O)N3C)c(F)c1` [Example I-226, 4-(9-cyclopentyl-7,7-difluoro-5-methyl-6-oxo-6,7,8,9-tetrahydro-5H-pyrimido[4,5-b][1,4]diazepin-2-ylamino)-N-(2-dimethylamino-ethyl)-3-fluoro-benzamide] yielded a concentration for half-maximal inhibition (IC50) of 1 to 50 nM.
